The record followed here is US20130064812A1, “COMBINATION THERAPIES FOR HEMATOLOGIC MALIGNANCIES” (Gilead Calistoga LLC, priority 2011, published 2013).

The test system of one assay is CLL cells. Description: BH3 profiling (mitochondrial depolarization) of CLL cells. In kind it is cell-based, human. The settings on record: 24 hours; p=0.075. On the procedure: CLL patient peripheral blood, bone marrow, and lymph node samples were analyzed by either the plate-based fluorimetry or FACS method. Briefly, PBMCs from CLL patients were made into single cell suspensions and gently permeabilized using digitonin (0.002%). For the fluorimtery-based method, 100 μM JC-1 (Invitrogen) was added at this time and cells were then loaded onto a 384-well plate, with individual wells containing individual BH3-only peptides. The JC1-BH3 assays were then conducted in triplicate on a Tecan Safire 2 with […] and Em 590+/−20 nm with a three-hour time course. For the FACS-based method, single cell suspensions from CLL patient PBMCs were stained using human Fc Block (BD Pharmingen) followed by anti-CD19-V450 (BD Pharmingen) and anti-CXCR4-APC (BD Pharmingen). […] JC-1 was measured from the 488-nm laser using a 530/30-nm filter (FITC) and a 585/42-nm filter (PE), and the degree of mitochondrial depolarization was calculated using the surrogate of the change in the median of PE signal. The mitochondrial depolarization reported in response to each BH3 peptide is normalized relative to the median percentage change in PE fluorescence of the JC-1 dye with a negative control, dimethyl sulfoxide (DMSO) (0%) and a positive control, the mitochondrial uncoupling agent carbonyl cyanide 4-(trifluoromethoxy)-phenylhydrazone (FCCP) (100%). […]

The test system of a further assay is AKT and ERK pathways. As to the kind of experiment: AKT and ERK pathway phosphorylation in MM cells (immunoblot). In kind it is cell-based, human. An excerpt:
Whole-cell lysates were subjected to sodium dodecyl sulfate-polyacrylamide gel electrophoresis (SDS-PAGE) separation, transferred to Pure Nitrocellulose membranes (Bio-Rad Laboratories, Hercules, Calif.), and immunoblotted with anti-AKT, phospho(p)-AKT (Ser473, Thr 308), ERK1/2, P-ERK1/2, P-PDK1, STAT, P-STAT, P-FKRHL, P-70S6K, LC3, and PI3K/p110α Abs (Cell Signaling Danvers, Mass.); anti-p110β, PI3K/p110δ, Glyceraldehyde 3-phosphate dehydrogenase (GAPDH), α-tubulin, and actin Abs (Santa Cruz Biotechnology, CA); and anti-p110γ Ab (Alexis, San Diego, Calif.): and anti-LC3 Ab (Abgent, San Diego, Calif.).
Actin Ab was used as a loading control. […] Whole cell lysates were subjected to immunoblotting using AKT, P-AKT (Ser473 and Thr308), ERK1/2, P-ERK1/2, P-PDK1, and P-FKRHL antibodies. α-tubulin is used as a loading control.
On the technique in general: A western blot detects proteins with antibodies after separation by electrophoresis.

For another assay, the system named is over 350 protein kinases. Description: Ambit KINOMEscan kinome-wide protein kinase screen. In kind it is binding. The note with it: 10 μM, over 350 protein kinases (over 300). The text has this: Examples of some kinases in the screen are shown below in Table 3.
Another assay relates to patient AML cells. Description: Phospho-Akt production in patient AML cells. Type of assay: cell-based, human. The settings on record: 0.1, 1.0, 10 μM. An excerpt:
PI3Kδ is implicated in signaling in AML patient cells.

In another assay the test system is PI3K-δ. Description: PI3K ELISA assay on CLL cell lysates with lenalidomide. In kind it is cell-based, human. The settings on record: 0.5 μM lenalidomide; 1 or 10 μM compound added to lysate; N=9. The procedure:
PI3K assay was preformed on whole cell lysates from CLL cells. The ELISA assay was performed according to the manufacture's instructions (Echelon Biosciences, Salt Lake City, Utah).
To first confirm the specificity of PI3-kinase activation, the direct increase in the enzymatic activity of PI3K following treatment with lenalidomide was determined. […] Results were calculated relative to μg of protein. Signaling with lenalidomide through the PI3K pathway can occur through four catalytic isoforms: p110α, p110β, p110γ, and p110δ.

The test system of assay [1] is HS-578T, T47D, and MCF7 cells. As to the kind of experiment: Apoptosis in breast cancer cell lines (Annexin V-FITC/7AAD). Type of assay: cell-based. The note with it: 24 h. The procedure: HS-578T, T47D, and MCF7 cells were treated with the compound of formula I or corresponding DMSO concentrations for 24 h. The percentage of apoptotic cells was determined by Annexin V-FITC/7AAD staining. Bottom left, viable cells ([…]); bottom right, early apoptotic cells (Annexin V-FITC positive only); top right, mid-late apoptotic cells (Annexin V-FITC/7AAD double-positive); and top left, late apoptotic/necrotic (7AAD positive only). Percentages of cells in each quadrant are indicated except for the bottom left quadrant (viable cells).

For assay [2], the system named is mantle cell lymphoma lesions. Description: Lesion area in a patient with mantle cell lymphoma. In kind it is in vivo, human. The note with it: 50 mg BID oral, 28 days (1 cycle). The procedure:
This example provides data relating to the area of lesions of a patient with mantle cell lymphoma after 1 cycle of treatment (28 days) with the compound of formula I. The area of 6 lesions was measured prior to treatment and after a cycle of treatment. […] The results are summarized in a bar graph found in FIG. 12.

In a further assay the test system is leukemia cell lines. Description: cells. Type of assay: cell-based. The settings on record: for apoptosis in leukemia cell lines: 1 μM or 10 μM, 24 hrs; for cellular viability of leukemia cell lines: 24 hours. On the procedure: Proliferation assays (AlamarBlue®) on ALL cell lines grown in the presence of 10% FBS serum and measurements were taken at 24 hrs. Proliferation was measured in triplicate wells in 96-well plates.
The percentage of apoptotic cells was determined by Annexin V-FITC/7AAD staining.

For a further assay, the target named is CIIbeta (Homo sapiens, UniProt O00750). Description: InvitroGen Adapta kinase assay, CIIbeta. Type of assay: biochemical.
CIIbeta, sequence (O00750 whole entry): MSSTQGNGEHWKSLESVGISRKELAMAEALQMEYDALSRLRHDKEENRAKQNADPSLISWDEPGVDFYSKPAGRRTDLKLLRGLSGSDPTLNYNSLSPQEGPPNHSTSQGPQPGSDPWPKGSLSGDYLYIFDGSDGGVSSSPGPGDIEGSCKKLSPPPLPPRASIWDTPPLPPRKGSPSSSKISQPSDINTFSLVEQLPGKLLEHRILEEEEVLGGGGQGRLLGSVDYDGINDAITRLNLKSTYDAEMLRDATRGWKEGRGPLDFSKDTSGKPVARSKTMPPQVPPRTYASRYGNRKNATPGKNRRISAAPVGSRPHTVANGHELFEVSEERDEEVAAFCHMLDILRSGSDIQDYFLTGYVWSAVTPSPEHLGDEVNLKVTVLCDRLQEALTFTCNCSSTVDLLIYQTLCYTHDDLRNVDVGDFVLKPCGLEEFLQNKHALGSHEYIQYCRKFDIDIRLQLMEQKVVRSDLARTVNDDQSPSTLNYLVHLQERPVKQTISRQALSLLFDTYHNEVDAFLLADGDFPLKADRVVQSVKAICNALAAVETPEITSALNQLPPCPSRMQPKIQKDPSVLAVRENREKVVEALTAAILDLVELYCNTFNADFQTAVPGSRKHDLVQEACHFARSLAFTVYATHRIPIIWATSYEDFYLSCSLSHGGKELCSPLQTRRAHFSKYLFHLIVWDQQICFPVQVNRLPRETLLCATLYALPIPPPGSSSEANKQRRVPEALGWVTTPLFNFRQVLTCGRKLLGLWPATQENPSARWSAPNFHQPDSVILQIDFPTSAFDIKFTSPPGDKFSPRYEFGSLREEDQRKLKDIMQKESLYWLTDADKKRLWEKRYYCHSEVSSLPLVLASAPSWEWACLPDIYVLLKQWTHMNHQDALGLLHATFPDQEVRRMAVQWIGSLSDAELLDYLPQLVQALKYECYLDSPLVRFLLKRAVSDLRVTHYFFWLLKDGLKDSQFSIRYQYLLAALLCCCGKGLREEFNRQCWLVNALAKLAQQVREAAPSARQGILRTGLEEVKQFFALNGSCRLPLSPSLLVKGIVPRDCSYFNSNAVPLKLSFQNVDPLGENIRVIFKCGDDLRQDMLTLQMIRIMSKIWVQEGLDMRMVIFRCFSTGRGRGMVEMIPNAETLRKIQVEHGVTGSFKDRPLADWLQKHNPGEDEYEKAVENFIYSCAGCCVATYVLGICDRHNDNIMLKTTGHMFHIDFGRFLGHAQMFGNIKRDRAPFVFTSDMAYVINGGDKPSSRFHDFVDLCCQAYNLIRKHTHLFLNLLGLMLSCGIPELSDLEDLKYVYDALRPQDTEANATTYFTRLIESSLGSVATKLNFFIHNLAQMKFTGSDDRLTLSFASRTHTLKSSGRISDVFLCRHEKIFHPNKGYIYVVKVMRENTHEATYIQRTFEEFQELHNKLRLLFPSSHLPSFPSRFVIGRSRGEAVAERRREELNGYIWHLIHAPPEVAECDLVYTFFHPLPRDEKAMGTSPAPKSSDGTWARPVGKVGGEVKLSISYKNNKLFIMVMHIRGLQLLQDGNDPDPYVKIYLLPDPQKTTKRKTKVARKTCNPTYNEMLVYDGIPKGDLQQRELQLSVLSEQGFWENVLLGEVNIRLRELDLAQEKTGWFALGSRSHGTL
A further assay has as its system LB and INA-6 cells. Description: MM cell growth with IL-6 or IGF-1 ([3H]-thymidine). Type of assay: cell-based, human. The settings on record: 5.0 or 10 μM; IL-6 1 and 10 ng/ml, IGF-1 10 and 100 ng/mL. The procedure:
DNA synthesis was determined by measuring [3H]-thymidine incorporation during the last 8 h of 72 h cultures. Data represent means (±SD) of triplicate cultures.

Where [3] appears, read: listed as compound of formula I.

On to `CC[C@H](Nc1ncnc2[nH]cnc12)c1nc2cccc(F)c2c(=O)n1-c1ccccc1` [Compound I, 5-fluoro-3-phenyl-2-[1-(9H-purin-6-ylamino)-propyl]-3H-quinazolin-4-one], for which the “mitochondrial priming of stroma-exposed CLL cells” value in the assay on CLL cells was “increased mitochondrial priming”. The “phosphorylation of PDK-1 and FKHRL” value in the assay on AKT and ERK pathways (INA-6 and LB, 0-6 hours) is “significantly inhibited phosphorylation of upstream PDK-1 and downstream FKHRL”. Also, in the assay with AKT and ERK pathways (low expression of P110δ, 0-5.0 μM, 6 hours), the “phosphorylation of AKT or ERK, MM.1S cells” value was “did not affect phosphorylation of AKT or ERK”. For the same molecule, in the assay on AKT and ERK pathways (p110δ positive, 12 h), the “phosphorylation of AKT and ERK1/2, INA-6 cells” value was “significantly blocked phosphorylation of AKT and ERK1/2”. Besides, the “activity in kinome-wide protein kinase screen” value in the assay with over 350 protein kinases is given as “failed to detect any activity”; with over 350 protein kinases (setting [3]), “little activity”. For the same molecule, in the assay on patient AML cells, the “phospho-Akt production in patient AML cells” value is on record as “reduces phospho-Akt production in patient AML cells”. For the same molecule, in the assay with PI3K-δ, the “PI3K enzymatic activity after lenalidomide” value is recorded as “prevent the increase in PI3K enzymatic activity”. The “apoptosis in breast cancer cell lines” value in assay [1] is reported as “cytotoxicity to three different breast cancer cell lines”; in assay [1] (setting [3]) it was “induces apoptosis in breast cancer cell lines”. Besides, the “decrease in tumor burden” value in [2] is given as 44%. Besides, the “apoptosis in leukemia cell lines” value with leukemia cell lines is “increase in apoptosis in the treated cells”; in the assay with leukemia cell lines (listed as compound I), “induces apoptosis in leukemia cell lines”. The cytotoxicity at 10 µM in the assay with leukemia cell lines (24 h, read-out: reduction of viability) is 40 to 50%. Further, the “cellular viability of leukemia cell lines” value in the assay with leukemia cell lines is reported as “strongly affected by 5-10 micromolar concentrations”; in the assay with leukemia cell lines (listed as compound I), “reduces cellular viability in a dose dependent manner”. Besides, the IC50 (commonly the midpoint of a concentration-inhibition curve) against CIIbeta is above 1000 nM. Besides, the “growth inhibition in the presence of IL-6 or IGF-1” value in the assay with LB and INA-6 cells is given as “Neither IL-6 nor IGF-1 protected against the growth inhibition”.
